Test results from patent US11083732B2, “Use of negative modulators of GABA receptors containing alpha5 subunits as fast acting antidepressants” (University of Maryland, Baltimore, priority 2014, dated 2021).
Entries after “also recorded” stand apart in the source; their conditions may differ.

Key:
[1] = system: forebrain binding sites; conditions: 0.7 mg/kg i.p.; Atack et al., 2005; cited from earlier work
[2] = system: rats subjected to chronic unpredictable stress; experiment: Social interaction test (SIT) after chronic unpredictable stress (CUS); format: in vivo, rat
Experimental: Chronic unpredictable stress (CUS). Male Sprague-Dawley rats (4-5 weeks-old; Harlan Laboratories) were randomly divided into control and CUS groups. Rats in the CUS group were individually housed. CUS animals were treated with two mild stressors every day for 5-6 weeks during their light phase (Willner et al., 1987). The stressors were randomly cycled to enhance unpredictability. The stressors were: forced swim, in which rats were placed in a basin containing cold water for 5 minutes; strobe lighting, in otherwise total darkness for 30 minutes; restraint, during which rats were put into appropriately sized restraint tubes for 30 minutes; exposure to white noise for 30 minutes; and food or water deprivation for 14 hours spanning the dark phase.
Social interaction test (SIT). […]
(§1) Each test consisted of a “target-absent” trial followed by a “target-present” trial. During testing, an individual test rat was placed in the center of the arena and, after 30s of adaptation, the rat's movements were recorded with the video camera for 2.5 minutes. […]
(§2) Results were quantified as the percentage of time spent in the “interaction zone” (the five grid squares immediately surrounding the plastic cage) as measured for both the “target-absent” and “target-present” trials. […]

[3] = system: rats subjected to chronic restraint stress; experiment: Social interaction test (SIT) after chronic restraint stress (CRS); format: in vivo, rat; conditions: 10 days CRS; L-655,708 0.7 mg/kg i.p.; 24 hrs post-injection; vs baseline
From the text: (§3) MRK-016 rapidly reverses loss of sucrose preference and social interaction behaviors after chronic restraint stress (FIG. 9). […] This persisted for 7 days despite further stress exposure. and in the same animals after an additional week of CRS and 7 days after the injection of MRK-016.
(§4) Chronic restraint stress (CRS). Male Sprague Dawley rats (4-5 weeks-old; Harlan Laboratories) were placed in appropriately sized restraint tubes, highly restricting their movement for periods of four hours in a brightly lit lab, every day for ten days during the light phase of their diurnal cycle (Lim et al., 2012).
Social interaction test (SIT). As described previously (Berton et al., 2006), rats were placed in a plastic enclosure (82×82 cm) with a 5×5 grid of squares (16.4×16.4 cm) visible underneath the clear plastic flooring. A small translucent perforated plastic box (20×16 cm) was placed against the center of one wall of the arena. During the testing conditions white overhead fluorescent lighting was used to illuminate the arena. A video camera positioned 170 cm above the floor of the arena was used to track the movements of the rats during the experiment.
as §1, §2
(§5) Several hedonic behaviors in rodents are sensitive to chronic stress and are restored by chronic, but not acute, administration of SSRIs, providing one means to screen for potential antidepressant compounds. First, it was determined whether L-655,708 would rapidly (<24 hrs) restore normal hedonic behavior following chronic restraint stress (Watanabe et al., 1992; Lim et al., 2012), consistent with the rapid antidepressant-like actions of ketamine (Li et al., 2011). […]

[4] = system: rats subjected to chronic restraint stress; experiment: Sucrose preference test (SPT) after chronic restraint stress (CRS); format: in vivo, rat; conditions: 10 days CRS; L-655,708 0.7 mg/kg i.p.; 24 hrs post-injection; vs pre-stress baseline
From the text: as §3, §4
Sucrose preference test (SPT). Rats were given a choice between two bottles containing tap water or a 1% sucrose solution (Rygula et al., 2006). Testing was conducted overnight (16 hours), including the full duration of their dark phase. Animals were first trained with both bottles while group-housed. For subsequent tests, including during the baseline period, animals were individually housed. Sucrose preference was calculated as amount of the sucrose solution consumed as a percentage of the total amount of liquid consumed.
Drugs/stats. L-655,708 was purchased from Tocris Bioscience (R&D Systems, Minneapolis, Minn.) and prepared at a concentration of 5 mM in 75% saline/25% DMSO. […] This dose is sufficient to occupy about 70% of forebrain binding sites (Atack et al., 2005)
as §5, with “2011). Baseline measurements were first made of social interaction and sucrose preference, and then 4-5 week old rats were subjected to ten days of CRS.” for “2011).”

For `CCOC(=O)c1ncn2c1[C@@H]1CCCN1C(=O)c1cc(OC)ccc1-2` [L-655,708, ethyl (13aS)-7-methoxy-9-oxo-11, 12,13,13 a-terahydro-9H-imidazo[1,5-a]pyrrolo[2,1-c] [1,4]benzodiazepine-1-carboxylate], the “occupancy of forebrain binding sites” value [1] is listed as “about 70%”, the “number of CUS rats in which social interaction was reversed” value ([2]; CUS 4 weeks plus one week, L-655,708 0.7 mg/kg i.p. 24 hrs earlier) is listed as 14 of 18 and the social interaction ([2]; CUS rats, single injection of L-655,708 0.7 mg/kg i.p. 24 hrs earlier) is listed as “restores the behavior; also recorded: reversed to levels that were not significantly different than pre-stress baseline”. The social interaction ratio [3] was “not significantly different than baseline” and the sucrose preference [4] was “not different from their pre-stress baseline”.
